In the NIST ThermoML archive (doi:10.1021/je7002836):

Key:
[1] = xn = mol fraction of the nth substance listed; conditions: 101 kPa, Liquid
[2] = molar heat capacity at constant pressure; xn = mol fraction of the nth substance listed; conditions: 101 kPa, Liquid

CCCC[n+]1cccc(C)c1.F[B-](F)(F)F [1-butyl-3-methylpyridinium tetrafluoroborate] + CCO
Conditions	mass density, [1] [kg/m3]	molar heat capacity at constant pressure, [2] [J/K/mol]
293.15 K, x1 = 0.0073	800.5	113.6
293.15 K, x1 = 0.0126	807.8	115.2
293.15 K, x1 = 0.0231	821.5	119.1
293.15 K, x1 = 0.0512	855.1	129.4
293.15 K, x1 = 0.1003	904.1	146.4
293.15 K, x1 = 0.2569	1010.3	190.3
293.15 K, x1 = 0.3847	1065.4	223.7
293.15 K, x1 = 0.4841	1097.1	–
293.15 K, x1 = 0.5031	–	252.6
293.15 K, x1 = 0.5963	1124.9	276.9
293.15 K, x1 = 0.6919	–	301.6
293.15 K, x1 = 0.7107	1148	–
293.15 K, x1 = 0.7784	–	324.5
293.15 K, x1 = 0.7966	1162.2	–
293.15 K, x1 = 0.8711	–	350
293.15 K, x1 = 0.8923	–	355.9
293.15 K, x1 = 0.9514	1183.1	372.8
293.15 K, x1 = 1	1188.6	385.8
298.15 K, x1 = 0.0073	796.3	115.4
298.15 K, x1 = 0.0126	803.5	117.1
298.15 K, x1 = 0.0231	817.3	120.9
298.15 K, x1 = 0.0512	851	131
298.15 K, x1 = 0.1003	900.1	147.5
298.15 K, x1 = 0.2569	1006.4	191.3
298.15 K, x1 = 0.3847	1061.6	224.8
298.15 K, x1 = 0.4841	1093.4	–
298.15 K, x1 = 0.5031	–	254.2
298.15 K, x1 = 0.5963	1121.3	278.5
298.15 K, x1 = 0.6919	–	303.4
298.15 K, x1 = 0.7107	1144.5	–
298.15 K, x1 = 0.7784	–	326.6
298.15 K, x1 = 0.7966	1158.7	–
298.15 K, x1 = 0.8711	–	352.1
298.15 K, x1 = 0.8923	–	358.1
298.15 K, x1 = 0.9514	1179.6	375.1
298.15 K, x1 = 1	1185.2	387.7
303.15 K, x1 = 0.0073	792	117.3
303.15 K, x1 = 0.0126	799.3	119.1
303.15 K, x1 = 0.0231	813	122.7
303.15 K, x1 = 0.0512	846.8	132.6
303.15 K, x1 = 0.1003	896	148.7
303.15 K, x1 = 0.2569	1002.6	192.4
303.15 K, x1 = 0.3847	1057.9	226
303.15 K, x1 = 0.4841	1089.7	–
303.15 K, x1 = 0.5031	–	255.7
303.15 K, x1 = 0.5963	1117.7	280.1
303.15 K, x1 = 0.6919	–	305.3
303.15 K, x1 = 0.7107	1140.9	–
303.15 K, x1 = 0.7784	–	328.9
303.15 K, x1 = 0.7966	1155.2	–
303.15 K, x1 = 0.8711	–	354.4
303.15 K, x1 = 0.8923	–	360.5
303.15 K, x1 = 0.9514	1176.2	377.4
303.15 K, x1 = 1	1181.7	390.1
308.15 K, x1 = 0.0073	787.6	119.5
308.15 K, x1 = 0.0126	794.9	121.2
308.15 K, x1 = 0.0231	808.8	124.7
308.15 K, x1 = 0.0512	842.6	134.3
308.15 K, x1 = 0.1003	891.9	150.1
308.15 K, x1 = 0.2569	998.7	193.6
308.15 K, x1 = 0.3847	1054.2	227.2
308.15 K, x1 = 0.4841	1086.1	–
308.15 K, x1 = 0.5031	–	257.3
308.15 K, x1 = 0.5963	1114.2	281.8
308.15 K, x1 = 0.6919	–	307.3
308.15 K, x1 = 0.7107	1137.4	–
308.15 K, x1 = 0.7784	–	331.1
308.15 K, x1 = 0.7966	1151.7	–
308.15 K, x1 = 0.8711	–	356.9
308.15 K, x1 = 0.8923	–	363
308.15 K, x1 = 0.9514	1172.8	379.7
308.15 K, x1 = 1	1178.3	392.8
313.15 K, x1 = 0.0073	783.3	121.7
313.15 K, x1 = 0.0126	790.6	123.3
313.15 K, x1 = 0.0231	804.5	126.7
313.15 K, x1 = 0.0512	838.4	136
313.15 K, x1 = 0.1003	887.8	151.6
313.15 K, x1 = 0.2569	994.8	194.9
313.15 K, x1 = 0.3847	1050.4	228.5
313.15 K, x1 = 0.4841	1082.4	–
313.15 K, x1 = 0.5031	–	258.9
313.15 K, x1 = 0.5963	1110.6	283.5
313.15 K, x1 = 0.6919	–	309.4
313.15 K, x1 = 0.7107	1133.9	–
313.15 K, x1 = 0.7784	–	333.5
313.15 K, x1 = 0.7966	1148.3	–
313.15 K, x1 = 0.8711	–	359.5
313.15 K, x1 = 0.8923	–	365.7
313.15 K, x1 = 0.9514	1169.4	382
313.15 K, x1 = 1	1174.9	395.9
318.15 K, x1 = 0.0073	778.9	124.1
318.15 K, x1 = 0.0126	786.2	125.6
318.15 K, x1 = 0.0231	800.3	128.8
318.15 K, x1 = 0.0512	834.1	137.9
318.15 K, x1 = 0.1003	883.7	153.2
318.15 K, x1 = 0.2569	990.9	196.2
318.15 K, x1 = 0.3847	1046.7	229.8
318.15 K, x1 = 0.4841	1078.7	–
318.15 K, x1 = 0.5031	–	260.4
318.15 K, x1 = 0.5963	1107.1	285.3
318.15 K, x1 = 0.6919	–	311.5
318.15 K, x1 = 0.7107	1130.4	–
318.15 K, x1 = 0.7784	–	335.9
318.15 K, x1 = 0.7966	1144.8	–
318.15 K, x1 = 0.8711	–	362.2
318.15 K, x1 = 0.8923	–	368.5
318.15 K, x1 = 0.9514	1166	384.4
318.15 K, x1 = 1	1171.6	399.3
